This note sets out measurements from patent US20250295798A1, “LIGAND-DRUG CONJUGATE OF EXATECAN ANALOGUE, AND MEDICAL USE THEREOF” (BeiGene Switzerland GmbH, priority 2022, published 2025).

Each structure is given as a SMILES string. Counter-ions that a name gives are not always drawn.

One test concerns Calu-6. Briefly: Compounds cellular killing in Calu-6. Conditions: Calu-6, 6 days, Cell Titer-Glo. In kind it is cell-based, human. As for the experimental part: (§1) Seeding cells A375 (1E3/well) or Calu-6 (2E3/well) into 96-well plate (Greiner: 655090), 100 ul/well. Incubation at 37° C., 5% CO2, overnight.
(§2) Adding the fresh growth-medium containing the varying concentrations of compounds, 50 ul/well.
(§3) Incubation at 37° C., 5% CO2, 6 days.
(§4) The cell viability detected by Cell Titer-Glo (Promega, G7573). Add 70 µL/well of CellTiter-Glo® Reagent in each well.
(§5) Allow the plates to incubate at room temperature for 10 minutes to stabilize luminescent signal.
(§6) Analyze with Microplate Reader.
(§7) Seeding cells A375 ([…] or Calu-6 (2E3/well) into 96-well plate (Greiner: 655090), 100 ul/well. Incubation at 37° C., […], overnight.
(ATP-based viability assays read luminescence as a measure of living cells.)

Another test relates to A375. Briefly: Compounds cellular killing in A375. In kind it is cell-based, human. The note with it: for EC50 / Emax / Emax (%): A375, 6 days, Cell Titer-Glo; for potency compared with compound 1-A and 1-C: Table 18, A375 and Calu-6. Here is the method: as §1, §2, §3, §4, §5, §6, §7

In the case of `CC[C@@]1(O)C(=O)OCc2c1cc1n(c2=O)Cc2c-1nc1cc(F)c(C)c3c1c2[C@@H](NC(=O)C1CCCC1O)CC3` (single isomer, unassigned) [Example 2-9], the values for the EC50 in the test with Calu-6 and in the test with A375 were 0.7 nM and 1.9 nM, respectively. The maximal response (Emax) in the test with Calu-6 (Homo sapiens, Calu-6, […]) worked out at 98.6%; in the test with A375 (Homo sapiens, A-375, […]), 100%.
Turning to `CC[C@@]1(O)C(=O)OCc2c1cc1n(c2=O)Cc2c-1nc1cc(F)c(C)c3c1c2[C@@H](NC(=O)C1CCCC1O)CC3` (single isomer, unassigned) [Example 2-10], the EC50 in the test on Calu-6 was 0.2 nM; in the test with A375, 0.8 nM. For the same compound, the “Emax (%)” value with Calu-6 amounted to 98.9%; in the test on A375 it was 99.9%.
With `CC[C@@]1(O)C(=O)OCc2c1cc1n(c2=O)Cc2c-1nc1cc(F)c(C)c3c1c2C(OCCO)CC3` (single isomer, unassigned) [Example 2-45], the Emax in the test on Calu-6 (Homo sapiens, Calu-6, […]) came out at 99.2%; in the test with A375 (Homo sapiens, A-375), 100%. For the same compound, the concentration for a half-maximal effect (EC50) in the test on Calu-6 (Homo sapiens) stood at 0.7 nM; in the test with A375 (Homo sapiens, A-375), 1.3 nM.
For `CC[C@@]1(O)C(=O)OCc2c1cc1n(c2=O)Cc2c-1nc1cc(F)c(C)c3c1c2[C@@H](N1CCCC1CO)CC3` (single isomer, unassigned) [Example 2-49], the EC50 in the test with Calu-6 (Homo sapiens, Calu-6, […]) stood at 0.2 nM; in the test with A375 it was 0.7 nM. For the same compound, the Emax with Calu-6 (Homo sapiens, Calu-6, […]) came out at 99.1%; with A375 (Homo sapiens, A-375, […]) it was 99.9%.
As to `CC[C@@]1(O)C(=O)OCc2c1cc1n(c2=O)Cc2c-1nc1cc(F)c(C)c3c1c2[C@@H](N1CCCC1CO)CC3` (single isomer, unassigned) [Example 2-50], in the test with Calu-6, the “Emax (%)” value is reported as 99.2%. For the same compound, in the test on A375, the EC50 is 0.3 nM and the “Emax (%)” value came out at 99.5%.
In the test on Calu-6 (Homo sapiens, Calu-6, […]), `CC[C@@]1(O)C(=O)OCc2c1cc1n(c2=O)Cc2c-1nc1cc(F)c(C)c3c1c2C(C(=O)NCCO)CC3` (single isomer, unassigned) [Example 2-52] gave an EC50 of 6 nM and an Emax of 97.3%. In the test with A375 (Homo sapiens, A-375, […]), this compound gave an EC50 of 16.1 nM and an Emax of 98.9%.
Regarding `CC[C@@]1(O)C(=O)OCc2c1cc1n(c2=O)Cc2c-1nc1cc(F)c(C)c3c1c2[C@@H](N1CCC1CO)CC3` (single isomer, unassigned) [Example 2-56], the values for the EC50 in the test on Calu-6 and in the test on A375 were 0.2 nM and 0.9 nM, respectively. Besides, the figures for the “Emax (%)” value with Calu-6 and with A375 were 99.0% and 100.0%, respectively.
In the case of `CC[C@@]1(O)C(=O)OCc2c1cc1n(c2=O)Cc2c-1nc1cc(F)c(C)c3c1c2C(N1CCC1CO)CC3` (single isomer, unassigned) [Example 2-57], the EC50 in the test on Calu-6 worked out at 0.7 nM; with A375, 1.9 nM. Further, the Emax with Calu-6 (Homo sapiens, Calu-6, […]) turned out to be 99.3%; in the test on A375 (Homo sapiens, A-375, […]), 100%.
Take `CC[C@@]1(O)C(=O)OCc2c1cc1n(c2=O)Cc2c-1nc1cc3c(c4c1c2C(CCCO)CC4)OCO3` (single isomer, unassigned) [Example 2-59]: the maximum response (Emax) is 98.4% in the test on Calu-6 (Homo sapiens, Calu-6, […]) and 100% in the test with A375 (Homo sapiens, A-375). The EC50 in the test on Calu-6 (Homo sapiens) worked out at 0.2 nM; with A375 (Homo sapiens, A-375), 0.8 nM. In addition, in the test on A375, the “potency compared with compound 1-A and 1-C” value was “higher potency than compound 1-A and 1-C”.
For `CC[C@@]1(O)C(=O)OCc2c1cc1n(c2=O)Cc2c-1nc1cc3c(c4c1c2C(CCCO)CC4)OCO3` (single isomer, unassigned) [Example 2-60], in the test with Calu-6, the EC50 was found to be 0.2 nM and the “Emax (%)” value stood at 98.2%. Further, in the test with A375, a half-maximal effect (EC50) was put at 0.8 nM; the “Emax (%)” value is reported as 100.0%; the “potency compared with compound 1-A and 1-C” value was “higher potency than compound 1-A and 1-C”.
In the test on Calu-6 (Homo sapiens, Calu-6, […]), `CC[C@@]1(O)C(=O)OCc2c1cc1n(c2=O)Cc2c-1nc1cc(F)c(OC)c3c1c2[C@@H](N)CC3` [Example 1-1, (1S,9S)-1-amino-9-ethyl-5-fluoro-9-hydroxy-4-methoxy-1,2,3,9,12,15-hexahydro-10H,13H-benzo[de]pyrano[3′,4′:6,7]indolizino[1,2-b]quinoline-10,13-dione methanesulfonate] yielded an EC50 of 0.9 nM and an Emax of 99.6%. In the test on A375 (Homo sapiens, A-375, […]), it took 2 nM to reach a half-maximal effect (EC50) and the Emax was found to be 100%.
Taken in the same sequence, the figures for `CC[C@@]1(O)C(=O)OCc2c1cc1n(c2=O)Cc2c-1nc1cc(F)c(O)c3c1c2[C@@H](N)CC3` [Example 1-3, (1S,9S)-1-amino-9-ethyl-5-fluoro-4,9-dihydroxy-1,2,3,9,12,15-hexahydro-10H,13H-benzo[de]pyrano[3′,4′:6,7]indolizino[1,2-b]quinoline-10,13-dione methanesulfonate] were 38.5 nM, 98.8%, 130 nM and 98.4%.
Turning to `CC[C@@]1(O)C(=O)OCc2c1cc1n(c2=O)Cc2c-1nc1cc(Cl)c(C)c3c1c2[C@@H](N)CC3` [Example 1-8, (1S,9S)-1-amino-5-chloro-9-ethyl-9-hydroxy-4-methyl-1,2,3,9,12,15-hexahydro-10H,13H-benzo[de]pyrano[3′,4′:6,7]indolizino[1,2-b]quinoline-10,13-dione], in the test with Calu-6 (Homo sapiens, Calu-6, […]), the EC50 was 0.5 nM and the Emax was found to be 98.8%. Also, in the test on A375 (Homo sapiens, A-375, […]), the EC50 is 1.2 nM and the Emax was 98.8%.
On to `CC[C@@]1(O)C(=O)OCc2c1cc1n(c2=O)Cc2c-1nc1cc3c(c4c1c2[C@@H](N)CC4)OCO3` [Example 1-10, (1S,10S)-1-amino-10-ethyl-10-hydroxy-1,2,3,10,13,16-hexahydro-11H,14H-benzo[de][1,3]dioxolo[4,5-g]pyrano[3′,4′:6,7]indolizino[1,2-b]quinoline-11,14-dione], for which the Emax was determined as 97.7% in the test with Calu-6 (Homo sapiens, Calu-6, […]) and 97.7% with A375 (Homo sapiens, A-375). Further, the EC50 in the test with Calu-6 (Homo sapiens) amounted to 0.3 nM; in the test with A375 (Homo sapiens, A-375) it was 0.4 nM.
For `CC[C@@]1(O)C(=O)OCc2c1cc1n(c2=O)Cc2c-1nc1ccc(F)c3c1c2[C@@H](N)CC3` [Example 1-12, (1S,9S)-1-amino-9-ethyl-4-fluoro-9-hydroxy-1,2,3,9,12,15-hexahydro-10H,13H-benzo[de]pyrano[3′,4′:6,7]indolizino[1,2-b]quinoline-10,13-dione], in the test with Calu-6 (Homo sapiens, Calu-6, […]), it took 2.1 nM to reach a half-maximal effect (EC50) and the Emax is 99.5%. Besides, in the test on A375 (Homo sapiens, A-375, […]), the response was half-maximal at 5.5 nM (EC50) and the Emax was determined as 99.8%.
`CC[C@@]1(O)C(=O)OCc2c1cc1n(c2=O)Cc2c-1nc1cc(Cl)cc3c1c2[C@@H](N)CC3` [Example 1-14, (1S,9S)-1-amino-5-chloro-9-ethyl-9-hydroxy-1,2,3,9,12,15-hexahydro-10H,13H-benzo[de]pyrano[3′,4′:6,7]indolizino[1,2-b]quinoline-10,13-dione]: the Emax turned out to be 98.8% with Calu-6 (Homo sapiens, Calu-6, […]) and 100% with A375 (Homo sapiens, A-375). Besides, the EC50 in the test with Calu-6 (Homo sapiens) came to 0.8 nM; in the test with A375 (Homo sapiens, A-375), 2.5 nM.
In the test on Calu-6 (Homo sapiens, Calu-6, […]), `CC[C@@]1(O)C(=O)OCc2c1cc1n(c2=O)Cc2c-1nc1cc3c(c4c1c2[C@@H](N)CC4)OC(F)(F)O3` [Example 1-16, (1S,10S)-1-amino-10-ethyl-5,5-difluoro-10-hydroxy-1,2,3,10,13,16-hexahydro-11H,14H-benzo[de][1,3]dioxolo[4,5-g]pyrano[3′,4′:6,7]indolizino[1,2-b]quinoline-11,14-dione 2,2,2-trifluoroacetate salt] registered an EC50 of 0.6 nM and a maximal effect (Emax) of 98.5%. Moreover, in the test on A375 (Homo sapiens, A-375, […]), the response was half-maximal at 1.6 nM (EC50) and the Emax came out at 98.5%.
In the test with Calu-6 (Homo sapiens, Calu-6, […]), `CC[C@@]1(O)C(=O)OCc2c1cc1n(c2=O)Cc2c-1nc1cc(O)cc3c1c2C(NC(C)=O)CC3` (stereo partly drawn) [Example 1-18, N-((9S)-9-ethyl-5,9-dihydroxy-10,13-dioxo-2,3,9,10,13,15-hexahydro-1H,12H-benzo[de]pyrano[3′,4′:6,7]indolizino[1,2-b]quinolin-1-yl)acetamide] returned an EC50 of 3.1 nM and an Emax of 99.5%. In the test with A375 (Homo sapiens, A-375, […]), this compound displayed an EC50 of 5.3 nM and an Emax of 99.9%.
Taken in the same sequence, the figures for `CC[C@@]1(O)C(=O)OCc2c1cc1n(c2=O)Cc2c-1nc1cc(F)cc3c1c2[C@@H](N)CC3` [Example 1-22, (1S,9S)-1-amino-9-ethyl-5-fluoro-9-hydroxy-1,2,3,9,12,15-hexahydro-10H,13H-benzo[de]pyrano[3′,4′:6,7]indolizino[1,2-b]quinoline-10,13-dione methanesulfonate] were 0.6 nM, 99.2%, 1.4 nM and 100%.
Taken in the same sequence, the figures for `CC[C@@]1(O)C(=O)OCc2c1cc1n(c2=O)Cc2c-1nc1cc(O)cc3c1c2[C@@H](N)CC3` [Example 1-24, (1S,9S)-1-amino-9-ethyl-5,9-dihydroxy-1,2,3,9,12,15-hexahydro-10H,13H-benzo[de]pyrano[3′,4′:6,7]indolizino[1,2-b]quinoline-10,13-dione methanesulfonate] were 118 nM, 94.4%, 112 nM and 96%.
On to `CC[C@@]1(O)C(=O)OCc2c1cc1n(c2=O)Cc2c-1nc1cc(F)c(Cl)c3c1c2[C@@H](N)CC3` [Example 1-26, ((1S,9S)-1-amino-4-chloro-9-ethyl-5-fluoro-9-hydroxy-1,2,3,9,12,15-hexahydro-10H,13H-benzo[de]pyrano[3′,4′:6,7]indolizino[1,2-b]quinoline-10,13-dione 2,2,2-trifluoroacetate salt], for which, in the test on Calu-6 (Homo sapiens, Calu-6, […]), the EC50 was found to be 0.3 nM and the Emax amounted to 98.1%. In the test on A375 (Homo sapiens, A-375, […]), this compound gave an EC50 of 1 nM and an Emax of 98.1%.
For `CC[C@@]1(O)C(=O)OCc2c1cc1n(c2=O)Cc2c-1nc1cc(F)c(C)c3c1c2[C@@H](NC(=O)CO)CC3` [Example 1-A, reference compound], in the test with Calu-6 (Homo sapiens, Calu-6, […]), the EC50 was 1 nM and the Emax came out at 98.9%. In the test with A375 (Homo sapiens, A-375, […]), this compound showed an EC50 of 2.2 nM and an Emax of 98.9%.

In general, EC50 refers to the midpoint of the concentration-response curve. The term Emax denotes the greatest response seen or fitted, relative to the assay's reference.
